Like-named read-outs stand apart in the source and are kept apart here.
Assays:
mouse hepatocytes = assay: Hepatocyte intrinsic clearance assay, mouse hepatocytes; format: in vitro ADME; settings: for CLint (μL/min/10^6 ells) / EH (%) hepatic extraction ratio: Mouse Hepatocytes; for CLint (μL/min/10^6 ells): 1 μM test compound; for EH (%) hepatic extraction ratio: well stirred liver model, fu=1
Text: (§1) The liver is an important organ in the body for drug metabolism. This Example describes hepatocyte intrinsic clearance assays using both human and mouse hepatocytes to evaluate the metabolic stability of the indole compounds disclosed herein. The parameters measured include t1/2 (half-life), CLint (intrinsic clearance), and EH (hepatic extraction ratio).
(§2) Testosterone (Lot FE111011-01) was obtained from Cerilliant (Round Rock, TX). 7-hydroxycoumarin (Lot 11631ED) was obtained from Sigma Aldrich (St. Louis, MO). Cryopreserved human hepatocytes pooled from ten donor males (X008001), cryopreserved male IRC/CD-1 mouse hepatocytes (M005052), INVITROGRO HI Medium (incubation), and INVITROGRO HT Medium (thawing) were obtained from Bioreclamation IVT (Baltimore, MD). All solvents were obtained from commercial sources and used without further purification.
(§3) Each test compound was prepared as a 1 mM stock solution in DMSO. A 2 μM solution of test compound and positive controls were prepared in INVITROGRO HI Medium (incubation). These solutions were pre-warmed in a sterile incubator set to maintain 37° C., 5% CO2, and 98% humidity. Cryopreserved hepatocytes were prepared at a concentration of 2×10^6 living cells/mL in incubation media and pre-warmed in the incubator. The compound solutions and hepatocyte mixtures were then combined at a ratio of 1:1 (v:v). The final volume of the reaction mixture was 750 μL, containing 1 μM test compound (10 μM for 7-hydroxycoumarin) and […]. The reaction mixture was placed in the incubator on a plate shaker. After 0, 15, 30, 60, 90, and 120 minutes of incubation, 100 μL of reaction mixtures were removed from the incubation plate and mixed with 150 μL of ice-cold acetonitrile in a designated well of a 96-well crash plate. The 96-well crash plate was placed on ice for 15 min, and samples were centrifuged (3,600 RPM, 10 min, 4° C.) to precipitate protein. The supernatants were diluted 1:1 (v:v) with water containing 0.15 μM verapamil and/or 1 μM tolbutamide (internal standards for positive and negative modes, respectively) in a 96-well shallow injection plate. This plate was sealed for LC-MS analysis. All measurements were done in duplicate.
(§4) The residual compound remaining (% R) was determined from LC-MS peak areas by comparison to the zero time point. Metabolic half-life (t1/2) and intrinsic clearance (CLint) values were calculated from the slope of the plot of ln (% R) vs. time and the concentration of hepatocytes present in the incubation. Percent remaining at 60 minutes was calculated by plugging in the 60 minute value into the slope equation generated by the percent remaining time points.
(§5) In vivo hepatic clearance CLH was calculated using the well stirred liver model according to the following equation:
(§6) [formula] where QH is the total liver blood flow, fu is unbound fraction of the drug, and CL′int is defined as follows: CL′int=CLint×(10^6 cells/g of liver weight)×(g liver weight/kg of body weight). In the first approximation, used in this study, fu=1.
(§7) Hepatic extraction ratio EH was calculated using the following equation:
(§8) [formula] Corresponding physiological parameters used in calculations for all species are shown below in Table 5.

[1] = as above; format: in vitro ADME; settings: male, IRC/CD-1, cryopreserved mouse hepatocytes; Mouse Hepatocytes, 1 μM test compound
Text: as §1, §2, §3, §4, §5, §6, §7, §8

[2] = Hepatocyte intrinsic clearance assay, human hepatocytes; format: in vitro ADME; settings: male, cryopreserved pooled human hepatocytes; Human Hepatocytes, 1 μM test compound
Summary of the method: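 Cryopreserved pooled male human or male CD-1 mouse hepatocytes (1×10^6 cells/mL final) incubated with 1 μM compound at 37° C, sampled from 0 to 120 min, quenched in acetonitrile and analysed by LC-MS in duplicate. t1/2 and CLint come from the ln(% remaining) vs time slope. EH comes from the well-stirred liver model with fu=1.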

[3] = tested on: EMT-6 syngeneic mouse tumor model (breast cancer); assay: Anti-tumor activity, EMT-6 syngeneic mouse tumor model; format: in vivo
Description: This example describes in vivo studies that evaluated the anti-cancer efficacy of the disclosed indole compounds in syngeneic mouse tumor models. Mice implanted subcutaneously with four types of cancer cells were treated with test indole compounds or vehicle controls as described below.
A monolayer culture of tumor cells was maintained in vitro in DMEM or RPMI1640 medium supplemented with 10% fetal bovine serum at 37° C. in an atmosphere of 5% CO2. Cells in exponential growth phase were harvested and quantitated by cell counter before tumor inoculation. The cell lines used are described in the table below.
Four subcutaneous syngeneic mouse tumor models were generated by innoculating female BALB/C or C57BL/6 mice with cancer cells at their right lower or front flank as detailed in the table below:
Each mouse was inoculated subcutaneously with tumor cells in 0.1 mL of PBS. Treatments were started when the mean tumor size reached approximately 80-120 mm^3 (around 100 mm^3). The administration of the indole compounds and the animal number in each study group are shown in the study design. The date of tumor cell inoculation was denoted as day 0.
The indole compounds were dissolved in DMSO at the final concentration of 26.7 mg/ml and stored at room temperature.
Randomization of animals was started when the mean tumor size reached approximately 90 mm^3 to form the mouse study groups. The randomization was performed based on “Matched distribution” method using the multi-task method (StudyDirector™ software, version 3.1.399.19)/randomized block design. The mouse groups (ten in each group) were treated with vehicle (DMSO) or the indole compounds at a dose of 40 mg/kg by i.p. injection, QD for 28 days or longer.
After tumor cell inoculation, the mice were checked daily for morbidity and mortality. During routine monitoring, the mice were checked for tumor growth and any effects of the treatment on behavior such as mobility, food and water consumption, body weight gain/loss (body weights were measured twice per week after randomization), eye/hair matting, and any other abnormalities. Mortality and observed clinical signs were recorded for individual mice in detail.
Tumor volumes were measured twice per week in two dimensions using a caliper, and the volume was expressed in mm^3 using the formula: V=(L×W×W)/2, where V is tumor volume, L is tumor length (the longest tumor dimension) and W is tumor width (the longest tumor dimension perpendicular to L). Dosing as well as tumor and body weight measurements was conducted in a Laminar Flow Cabinet. The body weights and tumor volumes were measured by using StudyDirector™ software (version 3.1.399.19). Dosing Holiday
Tumor growth inhibition percentage (TGI %) is an indicator for antitumor activity of a drug compound, and expressed as: TGI (%)=100×(1−T/C), where T and C are the mean tumor volume (or weight) of the treated and control groups, respectively, on a given day. Statistical analysis of the difference in mean tumor volume (MTV) among the groups was conducted using the data collected on the day when the MTV of the vehicle group reached the humane endpoints, so that TGI could be derived for all or most mice enrolled in the study.
In Studies 1 and 3, the anti-tumor activity of ARI-001 in parallel with ARI-002 at 160 mg/kg (mpk), and the anti-tumor activity of ARI-087 in parallel with ARI-002 at 40 mpk were assessed using the EMT-6, Pan02, A20, and LL/2 models. Because EMT-6 provides a fast-growing model that enables relatively quick differentiation of performance between compounds, this syngeneic mouse tumor model was chosen for the other studies. In Study 2, the anti-tumor activity of ARI-002 was compared with that of ARI-004 at 10, 40, and 80 mpk. In Study 4, the anti-tumor activity of ARI-087 was compared with that of ARI-140. In Study 5, the anti-tumor activity of ARI-087 was evaluated in parallel with ARI-143 and ARI-149 at 40 mpk. […]

[4] = Mus musculus, EMT6, ip, 720 h, Study 5, EMT-6, 40 mpk i.p. QD, D30, read-out: TGI (tumor growth inhibition)
[5] = Mus musculus, EMT6, ip, 624 h, Study 6, EMT-6, 40 mpk i.p. QD, D26, read-out: TGI (tumor growth inhibition)
[6] = Mus musculus, EMT6, ip, 648 h, Study 3, EMT-6, 40 mpk i.p. QD, D27, read-out: TGI (tumor growth inhibition)
[7] = Mus musculus, EMT6, ip, 672 h, Study 4, EMT-6, 40 mpk i.p. QD, D28, read-out: TGI (tumor growth inhibition)

SMILES: Nc1nnc(-c2csc(C(=O)c3c[nH]c4cc(Cl)c(Cl)cc34)n2)o1 [ARI-120, (4-(5-amino-1,3,4-oxadiazol-2-yl)thiazol-2-yl)(5,6-dichloro-1H-indol-3-yl)methanone]
- CLint (μL/min/10^6 ells) (mouse hepatocytes): 0.9 μL/min/10^6 ells
- EH (%) hepatic extraction ratio (mouse hepatocytes): 4.8%
- clearance / metabolic profile, in words (mouse hepatocytes; mouse hepatocytes): low clearance
- half-life at 1 μM [1]: 811 min
- half-life at 1 μM [2]: 921 min
- anti-tumor potency, in words ([3]; EMT-6 model, 40 mpk): less anti-tumor potency than ARI-087
- inhibition in vivo at 40 mg/kg [3, 4]: 27.2%

SMILES: Nc1nnc(-c2csc(C(=O)c3c[nH]c4ccccc34)n2)s1 [ARI-090, (4-(5-amino-1,3,4-thiadiazol-2-yl)thiazol-2-yl)(1H-indol-3-yl)methanone]
- CLint (μL/min/10^6 ells) (mouse hepatocytes): 2.5 μL/min/10^6 ells
- EH (%) hepatic extraction ratio (mouse hepatocytes): 13%
- half-life at 1 μM [1]: 282 min
- half-life at 1 μM [2]: 131 min
- anti-tumor potency, in words ([3]; EMT-6 model, 40 mpk): less anti-tumor potency than ARI-087
- inhibition in vivo at 40 mg/kg [3, 5]: 30.1%

SMILES: Nc1nnc(-c2csc(C(=O)c3c[nH]c4ccc(F)cc34)n2)o1 [ARI-148, (4-(5-amino-1,3,4-oxadiazol-2-yl)thiazol-2-yl)(5-fluoro-1H-indol-3-yl)methanone]
- CLint (μL/min/10^6 ells) (mouse hepatocytes): 3.6 μL/min/10^6 ells
- EH (%) hepatic extraction ratio (mouse hepatocytes): 18%
- half-life at 1 μM [1]: 190 min
- half-life at 1 μM [2]: 282 min
- anti-tumor potency, in words ([3]; EMT-6 model, 40 mpk): less anti-tumor potency than ARI-087
- inhibition in vivo at 40 mg/kg [3, 4]: 4.8%

SMILES: CCC(=O)c1csc(C(=O)c2c[nH]c3ccc(F)cc23)n1 [ARI-087, 1-(2-(5-fluoro-1H-indole-3-carbonyl)thiazol-4-yl)propan-1-one]
- CLint (μL/min/10^6 ells) (mouse hepatocytes): 6.3 μL/min/10^6 ells
- EH (%) hepatic extraction ratio (mouse hepatocytes): 27%
- EH lower as compared to ARI-002, in words (mouse hepatocytes; mouse hepatocytes): three times lower
- times lower clearance as compared to ARI-002 (mouse hepatocytes; mouse hepatocytes): 153 times
- half-life at 1 μM [1]: 111 min
- half-life at 1 μM [2]: 115 min
- anti-tumor potency, in words ([3]; EMT-6 model, 40 mpk): better tumor inhibitory activity than parent compound ARI-002
- tumor growth and survival, in words ([3]; EMT-6 model, 40 mpk): delayed tumor growth and prolonged survival
- complete tumor regression (CR) ([3]; EMT-6 model, Study 4, by day 46): did not result in a CR until day 81
- complete tumor regression (CR) ([3]; EMT-6 model, Study 5, by day 51): did not have any animal in CR
- animals with tumor volumes<1000 mm^3 ([3]; EMT-6 model, day 27, 40 mpk): 6 out of 10
- inhibition in vivo at 40 mg/kg [3, 5]: 52.8%
- inhibition in vivo at 40 mg/kg [3, 6]: 56.7%
- inhibition in vivo at 40 mg/kg [3, 7]: 29.5%
- inhibition in vivo at 40 mg/kg [3, 4]: 42.2%

SMILES: NCc1nc(-c2csc(C(=O)c3c[nH]c4c(F)cccc34)n2)no1 [ARI-146, (4-(5-(aminomethyl)-1,2,4-oxadiazol-3-yl)thiazol-2-yl)(7-fluoro-1H-indol-3-yl)methanone]
- CLint (μL/min/10^6 ells) (mouse hepatocytes): 6.9 μL/min/10^6 ells
- EH (%) hepatic extraction ratio (mouse hepatocytes): 29%
- half-life at 1 μM [1]: 100 min
- half-life at 1 μM [2]: 374 min
- anti-tumor potency, in words ([3]; EMT-6 model, 40 mpk): less anti-tumor potency than ARI-087
- inhibition in vivo at 40 mg/kg [3, 4]: 23.2%

SMILES: CNC(=O)c1csc(C(=O)c2c[nH]c3ccccc23)n1 [ARI-004]
- CLint (μL/min/10^6 ells) (mouse hepatocytes): 1,174.2 μL/min/10^6 ells
- EH (%) hepatic extraction ratio (mouse hepatocytes): 93%
- half-life at 1 μM [1]: 2.8 min
- half-life at 1 μM [2]: 42.7 min
- inhibition in vivo at 10 mg/kg ([3]; Mus musculus, EMT6, 648 h, Study 2, EMT-6, 10 mpk, D27, read-out: TGI (tumor growth inhibition)): -38.2%
- inhibition in vivo at 40 mg/kg ([3]; Mus musculus, EMT6, 648 h, Study 2, EMT-6, 40 mpk, D27, read-out: TGI (tumor growth inhibition)): 0.3%
- inhibition in vivo at 80 mg/kg ([3]; Mus musculus, EMT6, 648 h, Study 2, EMT-6, 80 mpk, D27, read-out: TGI (tumor growth inhibition)): 15.8%

SMILES: COC(=O)c1csc(C(=O)c2c[nH]c3ccccc23)n1 [ARI-001, ITE]
- CLint (μL/min/10^6 ells) (mouse hepatocytes): 585.7 μL/min/10^6 ells
- EH (%) hepatic extraction ratio (mouse hepatocytes): 87%
- half-life at 1 μM [1]: 5.5 min
- half-life at 1 μM [2]: 7.8 min
- inhibition in vivo at 160 mg/kg ([3]; Mus musculus, EMT6, 648 h, Study 1, EMT-6, 160 mpk, D27, read-out: TGI (tumor growth inhibition)): 53%

SMILES: Nc1nnc(-c2csc(C(=O)c3c[nH]c4ccccc34)n2)o1 [ARI-083, (4-(5-amino-1,3,4-oxadiazol-2-yl)thiazol-2-yl)(1H-indol-3-yl)methanone]
- CLint (μL/min/10^6 ells) (mouse hepatocytes): 0.7 μL/min/10^6 ells
- EH (%) hepatic extraction ratio (mouse hepatocytes): 4%
- clearance / metabolic profile, in words (mouse hepatocytes; mouse hepatocytes): lower clearance and hepatic extraction parameters than ARI-060
- half-life at 1 μM [1]: 968 min
- half-life at 1 μM [2]: 647 min
- inhibition in vivo at 40 mg/kg [3, 6]: 21.2%

SMILES: CCC(=O)c1csc(C(=O)c2c[nH]c3c(F)cccc23)n1 [ARI-140, 1-(2-(7-fluoro-1H-indole-3-carbonyl)thiazol-4-yl)propan-1-one]
- CLint (μL/min/10^6 ells) (mouse hepatocytes): 1.5 μL/min/10^6 ells
- EH (%) hepatic extraction ratio (mouse hepatocytes): 8.3%
- half-life at 1 μM [1]: 450 min
- half-life at 1 μM [2]: 200 min
- inhibition in vivo at 40 mg/kg [3, 7]: 30.6%

From patent US11891386B2, “Indole compounds and their use” (ARIAGEN, INC., priority 2017, dated 2024)
